Experimental findings from US20240287106A1, “Method for Producing Fluorescent Probe Library Using Solid-Phase Extraction and Method of Measuring Enzyme Activity Using Same” (The University of Tokyo, priority 2021, published 2024) are described below.

Format in all cases: biochemical
For one experiment, the target named is T1, CD13 (Homo sapiens, UniProt P15144).
T1 construct: human plasma samples collected from 30 patients with pancreatic cancer and 30 healthy subjects; from tissue; host or cells: human plasma (pancreatic cancer patients and healthy subjects)
The experiment in a line: Measurement of human plasma sample using CD13 probe in microdevice. The conditions noted are these: 50 μM probe, 1000 fold dilution plasma; for Fluorescence intensity of human plasma samples, patient with pancreatic cancer compared with healthy subject (CD13 probe): microdevice; for AUC of ROC curve for the number of wells in which CD13 is considered to be enclosed: plasma of 30 patients with pancreatic cancer vs 30 healthy subjects, 37° C. 4 hours, wells >= Average+3SD of background fluorescence. The protocol: 1. Arg-PMAC as a CD13 probe was diluted with an assay buffer to 100 μM. The composition of the buffer is 100 mM HEPES-NaOH (pH 7.4), 1 mM MgCl2, 1 mM DTT, 3 mM TritonX-100.
2. Next, human plasma samples collected from 30 patients with pancreatic cancer and 30 healthy subjects were diluted 500 times with the above assay buffer, and mixed in an equal amount with the diluted solution of the CD13 probe. At this time, the final concentrations are 50 μM for the CD13 probe and 1000 fold dilution for the human plasma sample.
(§1) 3. The mixed solution was then added to a microdevice, followed by the addition of sealing oil to enclose the solution in each well.
4. The microdevice in which the solution was enclosed was incubated at 37° C. for 4 hours, and then the fluorescence intensity of each well was measured with a fluorescence microscope.

The next experiment deals with T2, DPP4 (Homo sapiens, UniProt P27487).
T2 construct: human plasma samples collected from 30 patients with pancreatic cancer and 30 healthy subjects; from tissue; host or cells: human plasma (pancreatic cancer patients and healthy subjects)
Kind of experiment: Measurement of human plasma sample using DPP4 probe in microdevice. The conditions noted are these: 50 μM probe, 1000 fold dilution plasma. On the procedure: 1. Glu-Pro-PMAC as a DPP4 probe was diluted with an assay buffer to 100 μM. The composition of the buffer is 100 mM HEPES-NaOH (pH 7.4), 1 mM MgCl2, 1 mM DTT, 3 mM TritonX-100.
2. Next, human plasma samples collected from 30 patients with pancreatic cancer and 30 healthy subjects were diluted 500 times with the above assay buffer, and mixed in an equal amount with the diluted solution of the DPP4 probe. At this time, the final concentrations are 50 μM for the DPP4 probe and 1000 fold dilution for the human plasma sample.
as §1
4. The microdevice in which the solution was enclosed was incubated at 25° C. for 2 hours, and then the fluorescence intensity of each well was measured with a fluorescence microscope.

For experiment [1], the target named is T3, ENPP3 (Homo sapiens, UniProt O14638).
T3 sequence (O14638 1-875): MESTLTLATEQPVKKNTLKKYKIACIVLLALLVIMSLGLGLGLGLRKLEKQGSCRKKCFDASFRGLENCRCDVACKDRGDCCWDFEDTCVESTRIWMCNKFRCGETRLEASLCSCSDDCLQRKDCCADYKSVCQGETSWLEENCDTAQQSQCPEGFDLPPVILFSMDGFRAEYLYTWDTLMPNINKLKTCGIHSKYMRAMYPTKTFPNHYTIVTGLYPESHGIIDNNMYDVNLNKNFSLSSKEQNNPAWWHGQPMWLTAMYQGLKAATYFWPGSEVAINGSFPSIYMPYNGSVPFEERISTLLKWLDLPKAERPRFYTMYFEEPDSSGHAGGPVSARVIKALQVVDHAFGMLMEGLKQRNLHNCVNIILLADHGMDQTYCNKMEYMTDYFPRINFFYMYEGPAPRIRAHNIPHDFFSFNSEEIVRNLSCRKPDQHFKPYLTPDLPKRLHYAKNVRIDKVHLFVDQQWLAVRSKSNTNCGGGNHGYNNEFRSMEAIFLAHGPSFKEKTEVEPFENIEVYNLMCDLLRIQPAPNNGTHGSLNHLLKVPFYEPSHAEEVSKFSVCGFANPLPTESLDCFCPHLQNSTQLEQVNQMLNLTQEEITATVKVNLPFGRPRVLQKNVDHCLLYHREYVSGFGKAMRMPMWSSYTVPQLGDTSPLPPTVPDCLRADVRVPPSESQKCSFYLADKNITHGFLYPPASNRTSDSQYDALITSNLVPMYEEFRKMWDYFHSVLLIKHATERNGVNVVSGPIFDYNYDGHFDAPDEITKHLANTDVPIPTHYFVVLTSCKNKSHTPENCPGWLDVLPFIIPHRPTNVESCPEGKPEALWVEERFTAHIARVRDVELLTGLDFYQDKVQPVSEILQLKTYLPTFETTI
The experiment in a line: Activity measurement using a purified enzyme of ENPP3 on a plate reader. The settings on record: Tris-HCl buffer pH 9.3, 1 mM MgCl2, 0.5% CHAPS, 10 μM probe, ENPP3 9.9 μg/mL. On the procedure: The activity measurement of PMUM-dCMP obtained in Synthesis Example 7 was performed using a purified enzyme of ENPP3 on a plate reader.
The assay was performed with a Tris-HCl buffer (pH 9.3) containing 1 mM MgCl2, 0.5% w/w CHAPS, 10 μM PMUM-dCMP, and ENPP3 (recombinant, 9.9 μg/mL).

The target of experiment [2] is T3, ENPP3. The experiment in a line: Measurement of human plasma sample using ENPP probe in microdevice. Also on record: human plasma samples collected from six patients with pancreatic cancer and six healthy subjects; from tissue; host or cells: human plasma (pancreatic cancer patients and healthy subjects). On the procedure: 1. PMUM-dCMP as an ENPP probe was diluted with an assay buffer to 200 μM. The composition of the assay buffer is 100 mM Tris-HCl (pH 9.3), 1 mM MgCl2, 0.5% (w/v) CHAPS.
2. Next, human plasma samples collected from six patients with pancreatic cancer and six healthy subjects were diluted 250 times with the above assay buffer, and mixed in an equal amount with the diluted solution of the ENPP probe. At this time, the final concentrations are 100 μM for the ENPP probe and 500 fold dilution for the human plasma sample.
as §1
4. The microdevice in which the solution was enclosed was incubated at 25° C. for 40 minutes, and then the fluorescence intensity of each well was measured with a fluorescence microscope.
Specifically, in this example, an ROC curve for determination based on the enzyme activity of ENPP determined based on the number of wells with 2500 AU or more is created, and when a threshold is subtracted at the time when the number of wells with 2500 AU or more is 23, the sensitivity is 83% and the specificity is 100% (FIG. 16). It is possible to determine pancreatic cancer by such an ROC curve.

[3] abbreviates: threshold: number of wells with 2500 AU or more is 23.

T1 sequence (P15144 whole entry): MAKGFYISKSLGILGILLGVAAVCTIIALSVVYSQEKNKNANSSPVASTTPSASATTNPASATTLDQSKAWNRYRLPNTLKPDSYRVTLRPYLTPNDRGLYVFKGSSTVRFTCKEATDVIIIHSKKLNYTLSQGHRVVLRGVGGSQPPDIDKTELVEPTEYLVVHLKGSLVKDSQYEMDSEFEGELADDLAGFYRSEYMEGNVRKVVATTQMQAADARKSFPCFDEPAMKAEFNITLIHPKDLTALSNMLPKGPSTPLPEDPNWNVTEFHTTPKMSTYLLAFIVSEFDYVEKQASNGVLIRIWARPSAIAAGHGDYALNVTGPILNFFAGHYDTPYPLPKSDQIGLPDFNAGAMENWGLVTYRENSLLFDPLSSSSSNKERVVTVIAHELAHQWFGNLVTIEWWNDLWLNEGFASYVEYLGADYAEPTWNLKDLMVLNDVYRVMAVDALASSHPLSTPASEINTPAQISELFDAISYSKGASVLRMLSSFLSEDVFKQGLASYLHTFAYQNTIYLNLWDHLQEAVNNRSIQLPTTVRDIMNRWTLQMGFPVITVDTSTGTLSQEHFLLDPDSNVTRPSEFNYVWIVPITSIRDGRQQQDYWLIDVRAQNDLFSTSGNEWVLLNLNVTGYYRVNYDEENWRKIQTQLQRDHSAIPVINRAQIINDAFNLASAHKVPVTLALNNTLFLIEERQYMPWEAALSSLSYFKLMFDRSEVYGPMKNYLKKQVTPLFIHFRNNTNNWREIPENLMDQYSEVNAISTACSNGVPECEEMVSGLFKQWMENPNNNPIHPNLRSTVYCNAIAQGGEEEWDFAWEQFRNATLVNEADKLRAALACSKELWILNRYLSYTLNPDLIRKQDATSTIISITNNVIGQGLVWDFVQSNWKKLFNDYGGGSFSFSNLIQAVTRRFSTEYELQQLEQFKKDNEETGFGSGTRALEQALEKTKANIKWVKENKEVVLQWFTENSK
T2 sequence (P27487 39-766 limits assumed): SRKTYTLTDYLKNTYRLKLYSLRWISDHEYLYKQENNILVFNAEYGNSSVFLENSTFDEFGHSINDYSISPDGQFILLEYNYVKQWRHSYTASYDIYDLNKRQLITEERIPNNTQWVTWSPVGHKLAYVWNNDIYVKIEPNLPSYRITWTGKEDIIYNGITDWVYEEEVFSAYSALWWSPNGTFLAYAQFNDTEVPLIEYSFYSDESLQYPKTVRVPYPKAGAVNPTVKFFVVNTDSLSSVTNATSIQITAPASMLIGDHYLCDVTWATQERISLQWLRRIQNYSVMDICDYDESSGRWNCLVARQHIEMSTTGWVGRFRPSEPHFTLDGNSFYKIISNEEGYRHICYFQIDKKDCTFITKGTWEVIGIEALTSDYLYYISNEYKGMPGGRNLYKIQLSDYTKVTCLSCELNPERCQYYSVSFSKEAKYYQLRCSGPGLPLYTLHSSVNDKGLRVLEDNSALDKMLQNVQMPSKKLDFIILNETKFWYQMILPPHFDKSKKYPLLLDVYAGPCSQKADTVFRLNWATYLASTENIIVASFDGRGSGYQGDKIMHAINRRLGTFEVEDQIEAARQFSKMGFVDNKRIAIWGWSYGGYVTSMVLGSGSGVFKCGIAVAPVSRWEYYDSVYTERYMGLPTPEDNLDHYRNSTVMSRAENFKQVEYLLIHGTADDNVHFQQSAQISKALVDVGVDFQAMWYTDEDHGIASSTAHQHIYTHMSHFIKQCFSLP

`N=C(N)NCCC[C@H](N)C(=O)Nc1ccc2c(CP(=O)(O)O)cc(=O)oc2c1` [Arg-PMAC]: at CD13, the “Fluorescence intensity of human plasma samples, patient with pancreatic cancer compared with healthy subject (CD13 probe)” value is recorded as “a significant difference was observed” and the “AUC of ROC curve for the number of wells in which CD13 is considered to be enclosed” value is 0.554.

With `N[C@@H](CCC(=O)O)C(=O)N1CCC[C@@H]1C(=O)Nc1ccc2c(CP(=O)(O)O)cc(=O)oc2c1` [Glu-Pro-PMAC], the “Fluorescence intensity of human plasma samples, patient with pancreatic cancer compared with healthy subject (DPP4 probe)” value on DPP4 (microdevice) is given as “a significant difference was observed”. At DPP4 (plasma of 30 patients with pancreatic cancer vs 30 healthy subjects, 25° C. 2 hours), the “AUC of ROC curve for the ratio of the number of wells belonging to the two peaks (DPP4 considered enclosed)” value is listed as 0.724.

As for `CSCC[C@H](N)C(=O)Nc1ccc2c(CP(=O)(O)O)cc(=O)oc2c1` [Met-PMAC], at CD13, the “Fluorescence intensity of human plasma samples, patient with pancreatic cancer compared with healthy subject (CD13 probe)” value is given as “a significant difference was observed” and the “AUC of ROC curve for the number of wells in which CD13 is considered to be enclosed” value is recorded as 0.619.

Regarding `NC1C=CN(C2CC(O)C(COP(=O)(O)Oc3ccc4c(CP(=O)(O)O)cc(=O)oc4c3)O2)C(=O)N1` (centres unmarked) [PMUM-dCMP], the “Fluorescence intensity (FI) on adding ENPP3 compared with adding no ENPP3” value on ENPP3 [1] is on record as “remarkable increase in fluorescence intensity”. Besides, the “Fluorescence intensity of human plasma samples, patient with pancreatic cancer compared with healthy subject (ENPP probe)” value on ENPP3 [2] (microdevice, 100 μM probe, 500 fold dilution plasma) was “a significant difference was observed”. The “Number of wells with fluorescence intensity equal to or higher than 2500 AU, patients with pancreatic cancer compared with healthy subjects” value at ENPP3 [2] (plasma of six patients and six healthy subjects, 100 μM probe, 500 fold dilution plasma, 25° C. 40 minutes) is “significant increase in the number of wells”. Also, at ENPP3 [2] (setting [3]), the “Sensitivity of ROC determination of pancreatic cancer” value is given as 83% and the “Specificity of ROC determination of pancreatic cancer” value is on record as 100%.
